pIC50: −log10 of the molar value. Where “and” joins values, the source holds several entries; their conditions need not be identical. Equal values may be shown once.
Key:
Genome polyprotein [1] = target: T1, Genome polyprotein (dengue virus type 2, UniProt P29990); assay type: functional, Thailand/16681/1984
Genome polyprotein [2] = target: T1, Genome polyprotein; assay type: functional, Thailand/16681/1984; remark: listed apart in the source

T1 sequence (P29990 1346-1475 limits assumed): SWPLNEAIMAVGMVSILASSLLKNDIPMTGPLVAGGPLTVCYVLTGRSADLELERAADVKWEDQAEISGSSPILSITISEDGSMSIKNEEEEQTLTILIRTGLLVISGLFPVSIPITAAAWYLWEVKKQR
T1 sequence (P29990 1476-2093 limits assumed): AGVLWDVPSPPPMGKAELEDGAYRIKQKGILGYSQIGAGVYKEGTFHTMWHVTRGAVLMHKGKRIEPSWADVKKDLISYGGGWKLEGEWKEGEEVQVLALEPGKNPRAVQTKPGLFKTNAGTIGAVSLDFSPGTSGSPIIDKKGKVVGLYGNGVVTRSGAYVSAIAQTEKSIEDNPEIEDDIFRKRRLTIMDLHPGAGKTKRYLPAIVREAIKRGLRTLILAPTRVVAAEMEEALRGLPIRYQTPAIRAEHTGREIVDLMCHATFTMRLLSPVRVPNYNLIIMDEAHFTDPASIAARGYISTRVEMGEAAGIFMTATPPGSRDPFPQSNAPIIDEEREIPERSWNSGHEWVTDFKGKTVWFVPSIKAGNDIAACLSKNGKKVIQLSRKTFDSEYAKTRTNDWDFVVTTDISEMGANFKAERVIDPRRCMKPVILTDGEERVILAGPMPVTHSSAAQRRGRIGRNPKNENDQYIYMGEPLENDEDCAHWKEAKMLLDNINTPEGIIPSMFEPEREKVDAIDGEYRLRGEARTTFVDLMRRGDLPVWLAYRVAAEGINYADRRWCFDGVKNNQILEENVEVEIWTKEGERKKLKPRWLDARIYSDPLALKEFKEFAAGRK

SMILES	pIC50 (Genome polyprotein [1])	pIC50 (Genome polyprotein [2])
Cc1cc(CC(=O)O)ccc1Cc1c[nH]c2ccc(Cl)cc12	< 4.00	< 4.00
O=C(Nc1ccc2c(c1)CNC2)c1ccnc(CO)c1	< 4.00	< 4.00
O=C(Nc1ccc2c(c1)CNC2)c1c[nH]c2ncc(F)cc12	< 4.00	< 4.00
Cc1c(C(=O)Nc2cc(C(=O)N(C)C)ccn2)cc(C2CC2)n1C	< 4.00	< 4.00
NCc1cc(NC(=O)c2cc(Cl)cc(NC(=O)OCc3ccccc3)c2)cc(-c2cccc(CC(=O)O)c2)c1	< 4.00	< 4.00
O=C(Nc1ccc([C@H]2CCNC2)cc1)c1cc(Cl)cc2[nH]ncc12	4.06	4.01
O=C(Nc1ccc2c(c1)CNC2)c1cccnc1	< 4.00	< 4.00
O=C(O)Cc1cc2c(c(Cc3c[nH]c4ccc(Cl)cc34)c1)OCC2	< 4.00	< 4.00
CCOCCCN1Cc2ccc(NC(=O)c3cc(Cl)cc4[nH]ncc34)cc2C1	< 4.00	< 4.00
O=C(O)c1cc2cc(-c3cc(Cl)c4[nH]c(=O)oc4c3)ccc2[nH]1	4.33	4.20
O=C(Nc1ccc2c(c1)CNC2)c1cccc2[nH]ncc12	< 4.00	< 4.00
N[C@H]1CC[C@H](c2ccc(NC(=O)c3cc(Cl)cc4[nH]ncc34)cc2)C1	< 4.00	< 4.00
CNC(=O)[C@]1(Nc2ccc3c(c2)CNC3)C(=O)Nc2ccccc21	< 4.00	< 4.00
Cc1ccc(C(C)C)c(C(=O)Nc2ccc3c(c2)CNC3)c1	< 4.00	< 4.00
O=C(Nc1ccc2c(c1)CNC2)c1cc(C(F)(F)F)cc2[nH]ccc12	< 4.00	< 4.00
NCc1cc(NC(=O)c2cc(Cl)cc(NC(=O)OCc3ccccc3)c2)cc(C2=CC[C@H](C(=O)O)C2)c1	< 4.00	< 4.00
O=C(Nc1ccc2c(c1)CNC2)c1cc(Br)cc2c1OCO2	< 4.00	< 4.00
O=C(O)COc1cc2c(cc1Cc1c[nH]c3ccc(Cl)cc13)OCO2	< 4.00	4.05
NCCCc1ccnc(NC(=O)c2csc(C3CC3)n2)c1	< 4.00	< 4.00
O=C(Nc1ccc2c(c1)CCCN2)c1cc(Cl)cc2[nH]ncc12	< 4.00	< 4.00
O=C(O)c1nccn2ncc(Cc3c[nH]c4ccc(Cl)cc34)c12	< 4.00	< 4.00
Cc1ccc(-c2cc(CN)cc([C@@H]3C[C@H]3c3cc(Cl)cc(NC(=O)OCc4ccccc4)c3)c2)cn1	4.50	< 4.00

SMILES	pIC50 (Genome polyprotein [1])	pIC50 (Genome polyprotein [2])
O=C(Nc1ccc2c(c1)CNC2)[C@H]1CCc2ccccc21	< 4.00	< 4.00
O=C(Nc1ccc2c(c1)CNC2)c1ccncc1	< 4.00	< 4.00
COC(=O)c1cc(Br)cc2c(Cc3ccc(-c4nnn[nH]4)cc3)c[nH]c12	4.69	4.87
O=C(NCC1CCNCC1)c1cc(Cl)cc2[nH]ncc12	< 4.00	< 4.00
Cc1c(C(=O)O)sc2ncc(Cc3c[nH]c4ccc(Cl)cc34)cc12	4.33	4.60
Cc1ccc(NC(=O)c2cc(Cl)cc3[nH]ncc23)cc1N	< 4.00	< 4.00
NC[C@H]1CC[C@H](NC(=O)c2cc(Cl)cc3[nH]ncc23)CC1	< 4.00	< 4.00
CNC(=O)[C@]1(Nc2ccc3c(c2)CNC3)CCc2ccc(Cl)cc21	< 4.00	< 4.00
CCc1nc2c(C(=O)Nc3ccc4c(c3)CNC4)cc(Br)cc2[nH]1	4.61	4.60 and < 4.00
O=C(Nc1ccc2c(c1)CN(C(=O)C(F)(F)F)C2)c1cc(Cl)cc2[nH]ncc12	< 4.00	< 4.00
Clc1ccc2nc(C3CCOCC3)n(Cc3ccc4c(c3)CNC4)c2c1	< 4.00	< 4.00
CC(C)c1nc2cc(Cl)ccc2n1Cc1ccc(-c2nn[nH]n2)cc1	< 4.00	< 4.00
O=C(Nc1ccc2c(c1)C[C@H](O)C2)c1cc(Cl)cc2[nH]ncc12	< 4.00	< 4.00
Cc1ncc(Br)cc1C(=O)Nc1ccc2c(c1)CNC2	< 4.00	< 4.00
CN1C(=O)[C@H](c2cc(Cl)cc(NC(=O)OCc3ccccc3)c2)N(c2cccc(-c3nn[nH]n3)c2)C1=O	4.66	4.72
Cc1c(C(=O)Nc2cc(C#N)c3ccccc3n2)cc(C2CC2)n1C	< 4.00	< 4.00
O=C(Nc1cc(Cl)cc(-c2cc(NCc3ccccc3)c(C(=O)O)cn2)c1)OCc1ccccc1	5.12	5.27
O=C(Nc1ccc(C2CCNCC2)cc1)c1cc(Cl)cc2[nH]ncc12	< 4.00	< 4.00
Cc1cc(-c2ccc3[nH]c(C(=O)O)cc3c2)c2cc[nH]c(=O)c2c1	< 4.00	< 4.00
NC(=O)c1[nH]c2ccc(Br)cc2c1Cc1ccc(-c2nnn[nH]2)cc1	4.26	4.57
Cn1cc(-c2cc(CN)cc([C@@H]3C[C@H]3c3cc(Cl)cc(NC(=O)OCc4ccccc4)c3)c2)cn1	4.38	4.29
Cc1oc(C2CC2)nc1C(=O)Nc1cc(CCCN)ccn1	< 4.00	< 4.00

— ChEMBL document CHEMBL5604063, “ASAP - DENV-2 NS2B-NS3 protease fluorescence dose response” (2024)
